According to patent US8193377B2, “(−)-epigallocatechin gallate derivatives for inhibiting proteasome” (The Hong Kong Polytechnic University, priority 2004, dated 2012):
Like-named read-outs stand apart in the source and are kept apart here. One block for each compound: values may come before it.

Experiments:
[1] = target: 20S prokaryotic proteasome (UniProt Q9P992); conditions: Table 2, Reference a (Smith et al. 2004), cited from earlier work
[2] = target: T1, purified rabbit 20s proteasome (Oryctolagus cuniculus, UniProt G1T4Q9); experiment: Inhibition of chymotrypsin-like activity of purified 20S proteasome; format: biochemical
T1 construct: purchased Boston Biochem (Cambridge, Mass.)
T1 sequence (G1T4Q9 1-263): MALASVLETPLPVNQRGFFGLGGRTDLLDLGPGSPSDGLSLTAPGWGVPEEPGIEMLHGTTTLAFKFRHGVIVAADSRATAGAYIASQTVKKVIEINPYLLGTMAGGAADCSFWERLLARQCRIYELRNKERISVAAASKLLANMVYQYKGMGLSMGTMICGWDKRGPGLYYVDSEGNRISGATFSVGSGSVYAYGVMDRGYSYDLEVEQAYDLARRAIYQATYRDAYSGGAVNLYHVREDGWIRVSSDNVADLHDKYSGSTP
Experimental: Measurement of the chyrnotrypsin-like activity of the 20s proteasome was performed by incubating 0.5 μg of purified rabbit 20s proteasome with 40 μM fluorogenic peptide substrate, Suc-Leu-Leu-Val-Tyr-AMC, with or without various concentrations of natural and synthetic tea polyphenols as described previously (Nam S et. al.).
In order to test this hypothesis, proteasome activity was tested both in vitro and in intact Jurkat T cells with either 1 or (−)-EGCG (as a positive control). First, 1 and commercial (−)-EGCG were dissolved in DMSO and their effects on the chymotrypsin-like activity of purified 20S proteasomes were measured. […] In contrast, (−)-EGCG at 10 μM inhibited 80-90% of the proteasomal chymotrypsin-like activity. Therefore, as predicted, 1 outside of a cellular system is not a proteasome inhibitor.
Up to 25 μM of all protected and unprotected compounds were incubated with a purified 20s proteasome and a fluorogenic substrate for chyrnotrypsin activity for 30 min. The half-maximal inhibitory concentration or IC50 was then determined. […] This is consistent with the results above.

[3] = target: T2, proteasomal chymotrypsin-like activity in Jurkat T cells (Homo sapiens, UniProt P28074); experiment: Proteasomal chymotrypsin-like activity in intact Jurkat T cells / their lysates; format: cell-based; conditions: 25 μM, 4 and 24 h
T2 construct: measurement of the proteasomal chymotrypsin-like activity in the prepared lysates; endogenous in cells; host or cells: Jurkat T cells (human leukemia)
T2 sequence (P28074 60-263): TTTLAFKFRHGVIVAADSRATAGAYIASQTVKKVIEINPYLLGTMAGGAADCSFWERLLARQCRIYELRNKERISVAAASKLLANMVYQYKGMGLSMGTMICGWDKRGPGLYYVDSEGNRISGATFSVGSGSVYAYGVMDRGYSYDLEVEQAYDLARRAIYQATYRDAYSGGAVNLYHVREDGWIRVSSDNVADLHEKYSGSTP
Experimental: VA-13 or WI-38 cells were grown in 24 well plates (2 ml/well) to 70-80% confluency, followed by 24 h treatment with […] (−)-EGCG, 2, or 2a. […] Suc-Leu-Leu-Val-Tyr-AMC substrate was then added for 2.5 h at 37° C. and the chyrnotrypsin-like activity was measured as described above. Alternatively, cells were treated with each compound at 25 μM for 4 or 24 h, and harvested and lysed. Suc-Leu-Leu-Val-Tyr-AMC (40 μM) was then incubated with the prepared cell lysates for 2.5 h and the chymotrypsin-like activity was measured as described above.
If 1 converts to (−)-EGCG inside the cells, proteasome inhibition in vivo should be detected. To examine this possibility, human Jurkat cells was treated with 25 μM of 1 or (−)-EGCG for 12 or 24 h, followed by measurement of proteasome activity by using a chymotrypsin-like specific fluorogenic substrate in intact cells (FIG. 6a) or Western blot for ubiquinated proteins (FIG. 6b). […] To analyze the intracellular level of polyubiquitinated proteins, cells were lysed after 12 hours incubation and subjected to Western blotting. […] It is possible that the amount of EGCG generated from 1, and thus its biological activity inside the cells depends on a combination of factors: the relative permeability of 1 into the cells, the amount of esterase enzymes and the amount of anti-oxidants that may be present in the cells at any time.
To determine whether the unprotected and protected polyphenol analogs could inhibit the proteasomal activity in intact cells, leukemia Jurkat T cells were treated with each compound at 25 μM for 4 and 24 h, followed by collection of cell pellets and measurement of the proteasomal chymotrypsin-like activity in the prepared lysates.

[4] = system: ubiquitinated proteins, Bax, p27, IκBα in Jurkat T cells; experiment: Western blot for ubiquitinated proteins and proteasome targets (Bax, p27, IκBα) in Jurkat T cells; format: cell-based, human; conditions: 25 μM, up to 8 h
Experimental: Whole cells extracts were prepared as described previously (An B, Goldfarb R H, Siman R, Dou Q P. Novel dipeptidyl proteasome inhibitors overcome Bc1-2 protective function and selectively accumulate the cyclin-dependent kinase inhibitor p27 and induce apoptosis in transformed, but not normal, human fibroblasts. Cell Death Differ 1998; 5: 1062-75.). Analysis of Bax, IKBa, p27, PAW, and ubiquitinated protein expression were performed using monoclonal or polyclonal antibodies according to previously reported protocols (An B et. al.).
To determine what effects the synthetic tea analogs had on the proteasome in vivo, Jurkat cells were treated with 25 μM of each synthetic compound for either 4 or 24 h, with (−)-EGCG as a control (FIGS. 9A and 9B). […] This is consistent with the idea that protected analogs are potent inhibitors of the proteasome at an earlier time point and that after 24 h of treatment the ubiquitinated proteins are being depleted by deubiquitinating enzymes. […] The putative ubiquitinated IκBα band is still found in cells treated with 2a, 3a, and 4a (FIG. 9B, Lanes 9, 5, 7). The presumed ubiquinated IκBα band is now absent in the 24 h treatment, possibly due to deubiquitination (FIG. 9B). Actin was used as a loading control in this experiment.
The pro-apoptotic protein Bax and the cyclin-dependent kinase inhibitor p27 are natural proteasome targets. If the peracetate-protected polyphenols inhibit the intact proteasome activity, we would expect accumulation of Bax and p27 in these cells. To test this idea, Jurkat T cells were treated with both protected and unprotected compounds and lysates were analyzed by Western blot using specific antibodies to Bax and p27 (FIG. 15). After 4 h of treatment, the peracetate-protected analogs 24* and 19*, but not their unprotected analogs, were able to increase accumulation of both Bax (by 3- and 2.5-fold, respectively) and p27 (6- and 11-fold, respectively) (FIG. 15A). After 24 h treatment, Bax levels were increased in cells treated with all of the peracetate-protected compounds (13-, 12-, 40- and 36-fold, respectively, by 24*, 19*, 21* and 23*).

[5] = target: 20S prokaryotic proteasome (UniProt Q9P992); experiment: Table 2: effects of tea polyphenols on 20S prokaryotic proteasome activities; format: biochemical; conditions: Table 2, This work
Experimental: To further examine the effects of B-ring —OH group deletion on proteasome-inhibitory and cell death-inducing abilities, we synthesized several novel EGCG analogs with eliminated —OH groups on the B-ring as well as their putative prodrugs, the peracetate-protected counterparts. By using a purified 20S proteasome and a chymotrypsin-like fluorogenic substrate, the proteasome-inhibitory effects of the following unprotected polyphenol analogs are determined: […]

VA-13 cells = experiment: Immunostaining of apoptotic cells with anti-cleaved PARP-FITC; format: cell-based, human; conditions: 25 μM, 24 h
Experimental: Immunostaining of apoptotic cells was performed by addition of a FITC-conjugated polyclonal antibody that recognizes cleaved poly(ADP-ribose) polymerase (PARP) and visualized on an Axiovert 2 5 (Zeiss; Thornwood, N.Y.) microscope. Cells were grown to about 80% confluency in 60 mm dishes. VA-13 cells were then treated with VP-16, 2, or 2a (25 μM) for 24 h. Following treatment, both suspension and adhering cells were collected and washed twice in PBS pH 7.4. The cells were washed between all steps listed below and all washes are 1 min duration with PBS. Cells were then fixed in ice-cold 70% ethanol, permeabilized in 0.1% Triton-X-100 and blocked for 30 min in 1% bovine serum albumin (BSA) at room temperature. Incubation with the primary FITC-conjugated-p85/PARP antibody was for 30 min at 4° C. in the dark with mild shaking. Cell suspension was then transferred to glass slides in the presence of Vector Shield mounting medium with DAPI. Images were captured using AxioVision 4.1 and adjusted using Adobe Photoshop 6.0 software. Cell death was quantified by counting the number of apoptotic cells over the total number of cells in the same field. Data are mean of duplicate experiments ±SD.
It has been shown that proteasome inhibition can induce apoptosis in a wide variety of cancer cells, but not in normal, non-transformed cells (An B et al). Jurkat T cells are treated with 25 μM of each of the selected polyphenols and their protected analogs for 24 h to investigate their abilities to induce apoptotic cell death. […] The unprotected 2 induced much less apoptosis (21%), while 25 μM VP-16, used as a positive control, induced 92% apoptosis (FIGS. 10C and 10D). Counterstain with DAPI, which binds to the minor groove in A-T rich regions of DNA, was decreased drastically in apoptotic cells (FIG. 10C), consistent with DNA fragmentation in late stage apoptosis.

[6] = Suc-Leu-Leu-Val-Tyr-AMC, 2 h incubation, Table 1, read-out: IC50 (μM), unprotected
[7] = up to 25 μM, 30 min incubation, read-out: IC50

Sequence of 20S prokaryotic proteasome (Q9P992 whole entry): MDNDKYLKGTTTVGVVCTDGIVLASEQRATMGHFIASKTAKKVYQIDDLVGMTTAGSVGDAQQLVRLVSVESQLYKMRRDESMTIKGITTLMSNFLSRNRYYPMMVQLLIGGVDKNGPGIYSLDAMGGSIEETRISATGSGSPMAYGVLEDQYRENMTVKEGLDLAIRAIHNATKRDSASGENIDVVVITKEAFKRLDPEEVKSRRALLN

SMILES: O=C(O[C@@H]1Cc2c(O)cc(O)cc2O[C@@H]1c1ccc(O)c(O)c1)c1cc(O)c(O)c(O)c1 [(−)-ECG, (−)-epicatechin-3-gallate]
- IC50 [1]: 0.58 µM

- IC50 [2, 6]: 7.7 µM
SMILES: O=C(O[C@H]1Cc2c(O)cc(O)cc2O[C@@H]1c1ccc(O)c(O)c1)c1ccc(O)cc1 [Compound 11, (+)-(2R,3S)-5,7-dihydroxy-2-(3,4-dihydroxyphenyl)chroman-3-yl 4-hydroxybenzoate]

- proteasome inhibition in intact Jurkat T cells [3]: moderate potency
- IC50 [2, 6]: 8.51 µM
SMILES: O=C(O[C@@H]1Cc2c(O)cc(O)cc2O[C@@H]1c1ccc(O)cc1)c1ccc(O)cc1 [Compound 10, (−)-(2R,3R)-5,7-dihydroxy-2-(4-hydroxyphenyl)chroman-3-yl 4-hydroxybenzoate]

SMILES: O=C(OC1Cc2c(O)cc(O)cc2OC1c1ccc(O)c(O)c1)c1cc(O)c(O)c(O)c1 (single isomer, unassigned; (-)) [(−)-CG]
- IC50 [1]: 0.75 µM

SMILES: O=C(O[C@H]1Cc2c(O)cc(O)cc2O[C@@H]1c1ccc(O)c(O)c1)c1cc(O)c(O)c(O)c1 [(+)-CG, (+)-(2R,3S)-5,7-dihydroxy-2-(3,4-dihydroxyphenyl)chroman-3-yl 3,4,5-trihydroxybenzoate]
- IC50 [1]: 0.73 µM

- IC50 [2, 7]: 14 to 15 µM
SMILES: O=C(O[C@@H]1Cc2c(O)cc(O)cc2O[C@H]1c1cc(O)c(O)c(O)c1)c1cc(O)cc(O)c1 (relative stereo) [Compound 4, (2S*,3R*)-trans-5,7-Bis(hydroxy)-2-[3,4,5-tris(hydroxy)phenyl]chroman-3-yl 3,5-bis(hydroxy)benzoate]
- time course of ubiquitinated protein accumulation [4]: highest expression after 8 hours

- IC50 [2, 6]: 0.59 µM
SMILES: O=C(OC1Cc2c(O)cc(O)c(Cc3ccccc3)c2OC1c1ccc(O)c(O)c1)c1cc(O)c(O)c(O)c1 (centres unmarked) [Compound 16]

SMILES: O=C(OC1Cc2c(O)cc(O)cc2OC1c1ccc(O)c(O)c1)c1cc(O)c(O)c(O)c1 (single isomer, unassigned; (+)) [(+)-ECG]
- IC50 ([1]; read-out: IC50): 0.73 µM

SMILES: O=C(OC1Cc2c(O)cc(O)cc2OC1c1ccc(O)cc1)c1cc(O)c(O)c(O)c1 (centres unmarked) [#m]
- IC50 [5]: 4.56 µM

- IC50 [2, 6]: 5.99 µM
SMILES: O=C(O[C@@H]1Cc2c(O)cc(O)cc2O[C@@H]1c1ccc(O)c(O)c1)c1ccc(O)cc1 [Compound 12, (−)-(2R,3R)-5,7-dihydroxy-2-(3,4-dihydroxyphenyl)chroman-3-yl 4-hydroxybenzoate]

SMILES: O=C(O[C@H]1Cc2c(O)cc(O)cc2O[C@H]1c1ccccc1)c1cc(O)c(O)c(O)c1 [Compound 15, (+)-(2S,3S)-5,7-dihydroxy-2-phenylchroman-3-yl 3,4,5-trihydroxybenzoate]
- proteasome inhibition in intact Jurkat T cells [3]: moderate potency
- IC50 [5]: 4.56 µM

SMILES: O=C(O[C@H]1Cc2c(O)cc(O)c(Cc3ccccc3)c2O[C@H]1c1ccc(O)c(O)c1)c1cc(O)c(O)c(O)c1 [#1, (+)-(2S,3S)-5,7-dihydroxy-8-benzyl-2-[3,4-dihydroxy-phenyl]chroman-3-yl 3,4,5-trihydroxybenzoate]
- IC50 [5]: 0.39 µM

SMILES: COc1cc([C@@H]2c3cc4c(cc3[C@@H](O[C@@H]3O[C@@H]5CO[C@@H](C)O[C@H]5[C@H](O)[C@H]3O)[C@H]3COC(=O)[C@H]23)OCO4)cc(OC)c1O [VP-16, reference compound]
- apoptotic cells (p85 cleaved PARP) (VA-13 cells): 92%

- IC50 [2, 7]: 14 to 15 µM
SMILES: O=C(O[C@@H]1Cc2c(O)cc(O)cc2O[C@H]1c1cc(O)c(O)c(O)c1)c1ccc(O)cc1 (relative stereo) [Compound 3, (2S*,3R*)-trans-5,7-Bis(hydroxy)-2-[3,4,5-tris(hydroxy)phenyl]chroman-3-yl 4-(hydroxy)benzoate]
